According to ChEMBL document CHEMBL1201862, “PubChem BioAssay data set” (2004):
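How tested: cells in 96-well plates exposed to compound for 48 hours at five concentrations. Abbreviation: GI50, concentration required for 50% inhibition of growth.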 Activity calls are given as the source filed them. Rule as the data show it: active = GI50 up to about 1.1 µM and inactive = higher.

Legend:
Assay in all cases: NCI-60 cell line screen, 48 h
SNB-19 = test system: SNB-19
OVCAR-4 = test system: OVCAR-4
Hs-578T = test system: Hs-578T
MOLT-4 = test system: MOLT-4
LOX IMVI = test system: LOX IMVI
MDA-N = test system: MDA-N
NCI-H522 = test system: NCI-H522
M14 = test system: M14
SK-MEL-5 = test system: SK-MEL-5
RPMI-8226 = test system: RPMI-8226
DU-145 = test system: DU-145
HT-29 = test system: HT-29
UACC-257 = test system: UACC-257
A549 = test system: A549
SF-539 = test system: SF-539
NCI-H460 = test system: NCI-H460
EKVX = test system: EKVX
HCT-15 = test system: HCT-15
U-251 = test system: U-251
SR = test system: SR

| Compound | GI50 (SNB-19) | GI50 (OVCAR-4) | GI50 (Hs-578T) | GI50 (MOLT-4) | GI50 (LOX IMVI) | GI50 (MDA-N) | GI50 (NCI-H522) | GI50 (M14) | GI50 (SK-MEL-5) | GI50 (RPMI-8226) | GI50 (DU-145) | GI50 (HT-29) | GI50 (UACC-257) | GI50 (A549) | GI50 (SF-539) | GI50 (NCI-H460) | GI50 (EKVX) | GI50 (HCT-15) [µM] | GI50 (U-251) | GI50 (SR) |
| --- | --- | --- | --- | --- | --- | --- | --- | --- | --- | --- | --- | --- | --- | --- | --- | --- | --- | --- | --- | --- |
| CC(=N/NC(=S)N1CCCCC1)/C(C)=N\NC(=S)N1CCCCC1 | 1.88 µM (inactive) | 1.74 µM (inactive) | 1.85 µM (inactive) | 2.13 µM (inactive) | 3.15 µM (inactive) | 2.47 µM (inactive) | 2.09 µM (inactive) | 2.19 µM (inactive) | 1.57 µM (inactive) | 2.19 µM (inactive) | 1.61 µM (inactive) | 1.93 µM (inactive) | 1.87 µM (inactive) | 1.73 µM (inactive) | 2.35 µM (inactive) | 1.74 µM (inactive) | 1.63 µM (inactive) | 2.34 | 1.97 µM (inactive) |  |
| CCCCCC(/C=N/NC(N)=S)C(O)(C(F)(F)F)C(F)(F)F (configuration not stated) | > 10 µM (inactive) | > 10 µM (inactive) | > 10 µM (inactive) | > 10 µM (inactive) | > 10 µM (inactive) | > 10 µM (inactive) | > 10 µM (inactive) | > 10 µM (inactive) | > 10 µM (inactive) |  | > 10 µM (inactive) | > 10 µM (inactive) | > 10 µM (inactive) | > 10 µM (inactive) | > 10 µM (inactive) | > 10 µM (inactive) | > 10 µM (inactive) | > 10 | > 10 µM (inactive) | > 10 µM (inactive) |
| COc1cc(S(=O)(=O)Nc2nc(-c3ccc(N)cc3)cs2)ccc1Cl | 91.4 µM (inactive) | 34 µM (inactive) | 91.4 µM (inactive) | 53.7 µM (inactive) | 91.8 µM (inactive) | 55.8 µM (inactive) | 56 µM (inactive) | 59.8 µM (inactive) | 38.6 µM (inactive) |  | > 100 µM (inactive) | 54 µM (inactive) | 57.3 µM (inactive) | 51.5 µM (inactive) | > 100 µM (inactive) | 84.9 µM (inactive) | 42.7 µM (inactive) | 63.8 | 63 µM (inactive) | 61 µM (inactive) |
